The structures appear in SMILES notation. A value given as a limit tells only on which side of the number the result lay.

Series [1] can be described thus: Lipophilicity (logP) by RP-TLC. Particulars: RP-18 F254S TLC plates. The text has this: Lipophilicity is one of the most important physicochemical properties in pharmaceutical research. It can be considered a key determinant of the pharmacokinetic properties of a drug. It is commonly measured by the partition coefficient between water and n-octanol, being expressed as logP [14]. […] Knowledge of the partition coefficient is valuable: it is frequently used in structure–activity relationship (SAR) and quantitative structure–activity relationship (QSAR) studies. The experimental lipophilicity of the synthesized compounds, viz. benzylideneflavanones, benzylidenechromanones and spiropyrazolines, was determined using RP-TLC. […] It is important to examine the relationship between structure of the compound and its lipophilicity and cytotoxicity.
The RP-TLC experiments were performed on TLC plates (5 × 10 cm) RP-18 F254S (Merck, Darmstadt, Germany). The synthesized compounds were dissolved in N,N-dimethylformamide DMF (2 mg/mL). […] A DMF-water solvent system was used as mobile phase. […] All experiments were performed at room temperature. The logP parameter was calculated using the equation from the calibration curve.

For a further series, the system named is COLO-205 cells. Kind of series: MTT cytotoxicity assay, COLO-205. It counts as cell-based, human. Particulars: Homo sapiens, COLO 205, 48 h, 46 h + 2 h incubation. The protocol:
(§1) The first stage of the study used the MTT viability test to determine the cytotoxicity of ten compounds, i.e., 3-arylidenechromanone, 3-arylideneflavanone, spirochromanone and spiro- flavanone analogues, against four human cancer cell lines: HL-60, NALM-6, WM-115 and COLO-205.
(§2) Cytotoxicity was tested against human skin melanoma cells (WM-115, ECACC, Salisbury, UK), two human leukemia cell lines, viz. promyelocytic leukemia (HL-60) and lymphoblastic leukemia (NALM-6), and human colon adenocarcinoma cells (COLO-205). The cell lines COLO-205, WM-115 and HL-60 used in this work came from the ATCC American Type Culture Collection (Manassas, VA, USA), whereas the NALM-6 cell line was purchased from the German Collection of Microorganisms and Cell Cultures (Braunschweig, Germany). The leukaemia cells and colon adenocarcinoma were cultured in RPMI 1640 medium (Invitrogen, Grand Island, NY, USA) supplemented with 10% fetal bovine serum (FBS; Invitrogen) and gentamicin (25 µg/mL; KRKA, Novo Mesto, Slovenia). For melanoma WM-115 cells, Dulbecco’s minimal essential medium (DMEM; Invitrogen) was used. All cell lines were cultured at 37 °C in a humidified atmosphere of 5% CO2 in air.
(§3) For all experiments, the studied compounds were dissolved in DMSO (Sigma-Aldrich) and were further diluted in culture medium to obtain <0.1% DMSO concentration. In each experiment, controls with and without 0.1% DMSO were performed. The cytotoxicity of all compounds and of the reference compounds 4-chromanone and 3-benzylideneflavanone was determined by the MTT assay, i.e., 3-(4,5-dimethylthiazol-2-yl)-2,5-diphenyltetrazolium bromide (Sigma, St. Louis, MO, USA), which measures cellular dehydrogenase activity. Exponentially growing cells were seeded a day before the experiment onto a 96-well microplates (Nunc, Roskilde, Denmark) at a density up to 6–8 × 10^3 cells/well (depending on the cell line). Subsequently, various concentrations of the studied compounds freshly prepared in DMSO and diluted with complete culture medium were added. All compounds were tested for their cytotoxicity at a final concentration of 10^−7–10^−3 M. After 46 h of incubation with the studied compounds, the cells were treated with the MTT reagent and incubation was continued for another two hours. MTT – formazan crystals were dissolved in 20% sodium dodecyl sulphate (SDS, Sigma-Aldrich) and 50% DMF (Sigma-Aldrich) at pH 4.7; following this, absorbance was read at 570 nm on a multifunctional Victor ELISA-plate reader (Perkin Elmer, Turku, Finland). The IC50 values, i.e., the concentration of the test compound required to reduce the cell survival fraction to 50% of controls, were calculated from concentration-response curves and used as a measure of the sensitivity of the cells to a given treatment. As a control, cultured cells were grown in the absence of drugs. The data points represent the means of at least five to ten repeats ± standard deviation (S.D.).
Background: Formazan colour is commonly taken as a measure of viable cells.

Another series concerns NALM-6 cells. The series is described as follows: MTT cytotoxicity assay, NALM-6. It counts as cell-based, human. The conditions noted are these: Homo sapiens, 46 h + 2 h incubation. The protocol: as §1, §2, §3
For a further series, the system named is HL-60 cells. The series is described as follows: MTT cytotoxicity assay, HL-60. It counts as cell-based, human. The conditions noted are these: for IC50: Homo sapiens, 46 h + 2 h incubation. On the procedure: as §1, §2, §3
Another series has as its system erythrocytes. The series is described as follows: Red blood cell morphology (phase-contrast microscopy). It counts as cell-based. The conditions noted are these: 2% erythrocyte suspension, 37 °C, 1 h, phase contrast 400×. On the procedure:
Studies on erythrocyte morphology complement the erythrotoxicity studies because they provide information on potential immediate interactions of the tested compounds with the erythrocyte lipid bilayer, and the possibility of creating pathological forms of erythrocytes, which are not able to carry oxygen. The effects of the synthesized compounds, and the two reference compounds chromanone and flavanone, on the morphology of erythrocytes is shown in Figure 6. Briefly, 2% RBC suspension was incubated with 0.9% NaCl (control samples) or tested compounds at various concentrations corresponding to their activity towards cancer cell lines.
A 2% erythrocyte suspension was incubated at 37 °C for one hour with various concentrations of synthesized compounds. The morphology of the RBCs was examined by means of a phase contrast Opta-Tech inverted microscope, at 400× magnification, equipped with software (OptaView 7) for image analysis.

A further series has as its system WM-115 cells. The series is described as follows: MTT cytotoxicity assay, WM-115. The conditions noted are these: Homo sapiens, WM-115, 48 h, MTT, 46 h + 2 h incubation. It counts as cell-based, human. On the procedure: as §1, §2, §3
Series [2] relates to red blood cells (RBC membrane integrity). Kind of series: Red blood cell lysis assay. Particulars: 2% RBC suspension, 37 °C, 1 h. The format is cell-based. The text has this: (§4) All synthesized compounds with potential biological activity have to be tested for blood compatibility since xenobiotics will react with blood cells upon administration. In this case, biocompatibility refers to the quantification of cellular and plasma components of the blood. The measurement of the integrity of RBC membrane is considered a simple and reliable method for estimating hemocompatibility.
(§5) The studies on biological material were approved by the Bioethics Committee of the Medical University of Lodz, Poland (RNN/109/16/KE). The blood samples were obtained from healthy donors at the Blood Donation Centre in Lodz. The procedure for plasma preparation for erythrotoxicity studies was described previously. The influence of synthesized compounds as well as two reference compounds flavanone and chromanone on RBC membrane integrity was performed by lysis assay which was conducted according to our previous protocol. Briefly, 2% RBC suspension in 0.9% NaCl was incubated at 37 °C for one hour with the tested compounds at various concentrations corresponding to their activity towards cancer cell lines or 0.9% NaCl (control). The samples were centrifuged at 3000 rpm for 10 min and the absorbance of the supernatant was measured at 550 nm. The results are presented as percentage of haemolysis where a sample containing 10 μL of 2.0% v/v Triton X-100 was regarded as a positive control contributing to 100% of haemolysis. A sample containing saline solution represented spontaneous haemolysis of RBCs (control). The studies were performed on four biological samples obtained from different blood donors (n = 4). The results are presented as mean ± standard deviation (SD). The coefficient of variability for the method was counted: W = 9.51%, n = 5.

Series [3] can be described thus: Red blood cell lysis assay. It counts as cell-based. Particulars: human, 2% red blood cell suspension, 2% RBC suspension, 37 °C, Triton X-100 = 100%, read-out: percentage of hemolysis.
From the text: as §4, §5

Broadly, the chromatographic logP is lipophilicity estimated from chromatographic retention. Low readings indicate lower lipophilicity, high ones higher lipophilicity. The IC50 is the midpoint of a concentration-inhibition curve. The term melting point denotes the temperature, or range, at which the solid turns liquid. `O=C1c2ccccc2OC(c2ccccc2)C12N=NCC2c1ccccc1` (centres unmarked) [Compound 6, 2′-phenylchromanone-3′-spiro-3,4-phenyl-1-pyrazoline] displayed a melting point of 126.5 to 127 °C. Further, the chromatographic logP in series [1] was 5.88. In the series on COLO-205 cells, the 50% inhibitory concentration (IC50) was found to be 53.6 ± 1.6 µM. In the series with NALM-6 cells (NALM-6, 48 h, MTT), the 50% inhibitory concentration (IC50) stood at 44.4 ± 6.3 µM. The “fold lower cytotoxicity against HL-60 than compound 2” value in the series with HL-60 cells (HL-60, compared with compound 2) was “more than 330 fold”. Besides, in the series with HL-60 cells (HL-60, 48 h, MTT), the half-inhibitory concentration (IC50) is > 1000 µM. The “erythrocyte morphology (in words)” value in the series with erythrocytes is “echinocytes accounted for the major part of erythrocytes”. In addition, the concentration for half-maximal inhibition (IC50) in the series with WM-115 cells was 57.4 ± 5.8 µM.

In series [1], `O=C1CCOc2ccccc21` [Compound 4-Chromanone, 4-Chromanone, reference compound] yielded a chromatographic logP of 2.19. Also, the IC50 was 721.5 ± 6.4 µM with COLO-205 cells; 674 ± 22.5 µM in the series on NALM-6 cells (NALM-6, MTT); 677 ± 32.6 µM in the series with HL-60 cells (HL-60, MTT); > 1000 µM in the series with WM-115 cells. Also, the “effect on RBC hemolysis / erythrocyte membrane integrity (in words)” value in [2] was “Neither flavanone nor chromanone was found to have any unfavourable effect on the erythrocyte membrane over the whole concentration range”. The “erythrocyte morphology (in words)” value in the series on erythrocytes is recorded as “echinocyte formation was observed”.

On to `COc1ccc(C2CN=NC23COc2ccccc2C3=O)cc1` (centres unmarked) [Compound 4, 4′-[(4-methoxy)phenyl]-4′,5′-dihydro-4H-spiro[chroman-3,3′-pirazol]-4-one], for which the melting point is 109 to 111.3 °C. The same compound showed a chromatographic logP in series [1] of 4.68. Besides, the concentration for half-maximal inhibition (IC50) with COLO-205 cells was determined as 26.5 ± 1.8 µM. Besides, in the series with NALM-6 cells (NALM-6, 48 h, MTT), the IC50 is 72.6 ± 4.56 µM. In addition, the 50% inhibitory concentration (IC50) with HL-60 cells (HL-60, 48 h, MTT) amounted to 74 ± 1.85 µM. For the same compound, the hemolysis at 1 h in series [3] was ≤ 5%. Also, the “effect on RBC hemolysis / erythrocyte membrane integrity (in words)” value in [2] is recorded as “significant disintegration of the erythrocyte membrane at concentrations above 25 µM”. The “erythrocyte morphology (in words)” value in the series on erythrocytes is reported as “echinocytes accounted for the major part of erythrocytes”. Further, the IC50 in the series with WM-115 cells was determined as 75.3 ± 4.89 µM.

`COc1ccc(/C=C2\COc3ccccc3C2=O)cc1` [Compound 3, (E)-3-(4-methoxybenzylidene)chroman-4-one]: in [1], the chromatographic logP amounted to 4.08. Also, the IC50 is 193 ± 2.9 µM in the series with COLO-205 cells; 30.1 ± 3.15 µM with NALM-6 cells (NALM-6, 48 h, MTT); 45.4 ± 4.77 µM with HL-60 cells (HL-60, 48 h, MTT); 23.5 ± 1.71 µM in the series on WM-115 cells. For the same compound, the hemolysis at 1 h in series [3] is ≤ 5%. Besides, in series [2], the “effect on RBC hemolysis / erythrocyte membrane integrity (in words)” value is given as “significant disintegration of the erythrocyte membrane at concentrations above 25 µM”. The “erythrocyte morphology (in words)” value with erythrocytes is recorded as “echinocytes accounted for the major part of erythrocytes”.

`O=C1c2ccccc2OCC12N=NCC2c1ccccc1` (centres unmarked) [Compound 8, 4′-phenyl-4′,5′-dihydro-4H-spiro[chromano-3,3′-pirazol]-4-one]: the melting point lay within 141 to 142 °C. The same compound gave a chromatographic logP in series [1] of 2.35. Further, the 50% inhibitory concentration (IC50) in the series with COLO-205 cells is > 1000 µM. Besides, in the series on NALM-6 cells (NALM-6, 48 h, MTT), the half-inhibitory concentration (IC50) amounted to 282 ± 49.4 µM. Besides, the IC50 with HL-60 cells (HL-60, 48 h, MTT) amounted to 474 ± 29 µM. Further, in series [2], the “effect on RBC hemolysis / erythrocyte membrane integrity (in words)” value is “significantly greater disintegration of RBC membrane was reported at concentrations of 250 µM and 500 µM”. The concentration for half-maximal inhibition (IC50) in the series with WM-115 cells is 415 ± 75.4 µM.

Regarding `O=C1CC(c2ccccc2)Oc2ccccc21` (centres unmarked) [flavanone, reference compound], in [2], the “effect on RBC hemolysis / erythrocyte membrane integrity (in words)” value is given as “Neither flavanone nor chromanone was found to have any unfavourable effect on the erythrocyte membrane over the whole concentration range”. For the same compound, in the series with erythrocytes, the “erythrocyte morphology (in words)” value is listed as “echinocyte formation was observed”.
